This is an account of results in US10538490B2, “Benzylaminopyridylcyclopropanecarboxylic acids, pharmaceutical compositions and uses thereof” (Boehringer Ingelheim International GmbH, priority 2016, dated 2020).

Data set [1] is described as follows: Chemical stability (degradation kinetics) at pH value of ca. 1.2. The data set is classed as physicochemical. As to conditions: pH value of ca. 1.2 (acetonitrile/0.1 M aqueous HCl 2:3), 37° C., HPLC. On the procedure: Degradation kinetics is used to simulate chemical stability of compounds in the acidic part of the gastro intestinal tract. […] Their application as medical drugs to treat human diseases is therefore less restricted and troublesome.
The chemical stability of the compounds of the invention at pH value of ca. 1.2 is determined as follows:
Compound is dissolved in an HPLC vial either in a mixture of acetonitrile/0.1 M aqueous HCl (2:3; pH ca. 1.2) or in a mixture of acetonitrile/Mcllvaine buffer pH 7.4 (2:3) to get a concentration of approximately 0.25 mg/ml. The vial was then transferred into an HPLC autosampler system and maintained at a temperature of 37° C. A first sample is taken and injected immediately into a standard HPLC system with a UV DAD detector. Further samples are injected after 2, 4, 6, 8 and 10 hours. Amount of degraded compound is measured by determining the recovery rate of compound [%] for each injection using an HPLC standard gradient method. Therefore the peak area of the main peak for the first injection (AUt0) is determined and set as 100%. Peak area of the main peak is determined also for the further injections (AUtn, n=2, 4, 6, 8, 10) and expressed as fraction of […] [%].

The target of a further data set is human GPR40 receptor (Homo sapiens, UniProt O14842). Put plainly: IP1 accumulation measurements using the IPOne assay system. The data set is classed as cell-based. As to conditions: 1321N1 cells stably expressing human GPR40 receptor, stimulation 1 h at 37° C. On the procedure: IP1 accumulation measurements using the IPOne assay system—1321N1 cells stably expressing human GPR40 receptor (Euroscreen, Belgium) are seeded 24 h before the assay in white 384-well plates in culture medium containing 10% FCS, 1% Na-Pyruvate and 400 μg/mL G418. IPi is assayed according to the manufacturer's description (Cisbio Bioassays, France). In brief, the assay is started by substitution of the culture medium by stimulation buffer (Hepes 10 mM, CaCl2 1 mM, MgCl2 0.5 mM, KCl 4.2 mM, NaCl 146 mM, glucose 5.5 mM and LiCl 50 mM, pH 7.4). Cells are stimulated for 1 h at 37° C., 5% CO2 by addition of the compounds that are diluted in stimulation buffer containing LiCl. Assays are stopped by adding HTRF-conjugates (IP1-d2 and Anti-IP1 cryptate Tb) and lysis buffer, provided by the manufacturer. After an incubation time of 1 h at room temperature plates are measured using an EnVision™, Perkin Elmer. The obtained fluorescence ratios at 665/615 […] are then used to calculate the pEC50 values using Assay Explorer 3.3 Software (Accelrys, Inc.) by interpolation using an IP1 reference curve and subsequent sigmoidal curve fitting allowing for a variable hill slope.

Data set [2] is described as follows: Aqueous solubility in buffer versus acetonitrile/water (1/1), LC-UV. As to conditions: kinetic from dmso stock, buffer pH 2.2, 24 h shaking, 2.5% DMSO, ">" if more than 90% dissolved. Type of data set: physicochemical. As for the experimental part: The aqueous solubility of the compounds of the invention is determined by comparing the amount dissolved in buffer to the amount in an acetonitrile/water (1/1) solution. Starting from a 10 mM DMSO stock solution aliquots are diluted with acetonitrile/water (1/1) or buffer, respectively. After 24 h of shaking, the solutions are filtrated and analyzed by LC-UV. The amount dissolved in buffer is compared to the amount in the acetonitrile solution.
Solubility is usually being measured from 0.001 to 0.125 mg/mL at a DMSO concentration of 2.5%. If more than 90% of the compound is dissolved in buffer, the value is marked with “>”.

Converted amounts (≈) assume the structure as drawn.

Sequence of human GPR40 receptor (O14842 whole entry): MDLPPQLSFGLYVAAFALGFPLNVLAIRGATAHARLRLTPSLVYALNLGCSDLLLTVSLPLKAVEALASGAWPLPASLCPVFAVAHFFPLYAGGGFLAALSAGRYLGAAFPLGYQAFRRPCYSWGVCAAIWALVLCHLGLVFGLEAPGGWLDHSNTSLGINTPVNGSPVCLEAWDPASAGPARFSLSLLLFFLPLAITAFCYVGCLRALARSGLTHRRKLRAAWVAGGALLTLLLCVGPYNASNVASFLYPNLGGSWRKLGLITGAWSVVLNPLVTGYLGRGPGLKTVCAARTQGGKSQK

As to `Cc1cccc(C)c1-c1ccc(F)c2c1CC[C@H]2Oc1ccc(C2CC2C(=O)O)cc1` (some centres unmarked) [WO 2013/178575 Example 33], in data set [1], the “Amount of degradation after 2 h” value worked out at 8%.
For orientation: EC50 means the concentration giving half of the maximal effect. As a reminder, the solubility is how much of the substance goes into solution per volume. Regarding `Cc1cccc(C)c1-c1ccc(F)c(CNc2ccc([C@H]3C[C@@H]3C(=O)O)cn2)c1` [Example 18], it took 131 nM to reach a half-maximal effect at human GPR40 receptor (EC50). In data set [2], this compound came in with a solubility at 24 h above 120 µg/mL. For the same compound, the “Amount of degradation after 2 h” value in data set [1] is reported as below 0.5%.
As for `Cc1c(C#N)cccc1-c1ccc(F)c2c1CC[C@H]2Oc1ccc([C@H]2C[C@@H]2C(=O)O)cc1` [WO 2013/178575 Example 54, reference compound], in data set [2], the solubility at 24 h was below 1 µg/mL. Further, the “Amount of degradation after 2 h” value in data set [1] stood at 2.5%.
The corresponding values for `Cc1cc(C(=O)NCC(C)(C)O)cc(C)c1-c1ccc(F)c2c1CC[C@H]2Oc1ccc([C@H]2C[C@@H]2C(=O)O)cc1` [WO 2013/178575 Example 15, reference compound] are below 1 µg/mL and 3%.
The corresponding values for `Cc1cc(OCCC(C)(C)O)cc(C)c1-c1ccc(F)c2c1CC[C@H]2Oc1ccc([C@H]2C[C@@H]2C(=O)O)cc1` [WO 2013/178575 Example 17, reference compound] are below 1 µg/mL and 8%.
`Cc1cc(-c2nnn(C)n2)cc(C)c1-c1ccc(F)c(CNc2ccc([C@H]3C[C@@H]3C(=O)O)cn2)c1` [Example 48] came in with an EC50 at human GPR40 receptor of 20 nM. The compound also came in with a solubility at 24 h in data set [2] of 102 µg/mL (≈ 216 µM). In data set [1], the “Amount of degradation after 2 h” value is on record as below 0.5%.
Turning to `Cc1cc(OCCCS(C)(=O)=O)cc(C)c1-c1ccc(F)c2c1CC[C@H]2Oc1ccc([C@H]2C[C@@H]2C(=O)O)cc1` [WO 2013/178575 Example 11], in data set [1], the “Amount of degradation after 2 h” value amounted to 5%.
`Cc1cc(-c2nnn(C)n2)cc(C)c1-c1cc(CNc2ccc([C@H]3C[C@@H]3C(=O)O)cn2)c(F)cc1F` [Example 90] registered a concentration giving a half-maximal response (EC50) on human GPR40 receptor of 8 nM. The compound also showed a solubility at 24 h in data set [2] of 89 µg/mL (≈ 181 µM).
At human GPR40 receptor, `Cc1cc(C#N)cc(C)c1-c1cc(CNc2ccc([C@H]3C[C@@H]3C(=O)O)cn2)c(F)cc1F` [Example 77] had an EC50 of 83 nM. Also, in data set [2], the solubility at 24 h is 97 µg/mL (≈ 224 µM).
The corresponding values for `Cc1cc(OCCC(C)(C)O)cc(C)c1-c1cc(CNc2ccc([C@H]3C[C@@H]3C(=O)O)cn2)c(F)cc1F` [Example 2] are 42 nM and 83 µg/mL (≈ 163 µM).
As to `CC(C)(O)CCOc1ccc(-c2cc(CNc3ccc([C@H]4C[C@@H]4C(=O)O)cn3)ccc2C(F)(F)F)cc1` [Example 4, (1S,2S)-2-(6-{[4′-(3-Hydroxy-3-methyl-butoxy)-6-trifluoromethyl-biphenyl-3-ylmethyl]-amino}-pyridin-3-yl)-cyclopropanecarboxylic Acid], on human GPR40 receptor, the EC50 worked out at 15 nM. Also, the solubility at 24 h in data set [2] was 92 µg/mL (≈ 179 µM). The “Amount of degradation after 2 h” value in data set [1] is on record as below 0.5%.
